These results are taken from patent publication US8088763B2 (priority 2004, dated 2012).

In assay [1] the target is T1, 5HT-uptake (Rattus norvegicus, UniProt P31652).
T1 construct: synaptosomes were freshly isolated from areas of rats' brains
Kind of assay: biochemical. The conditions noted are these: for inhibition at 10 µM: read-out: 5HT-uptake [10 μM], % inhibition.

Assay [2] has as its target NA-uptake (Rattus norvegicus, UniProt Q63380). Description: biochemical. Conditions: for inhibition at 10 µM: read-out: NA-uptake [10 μM], % inhibition.

Sequence of NA-uptake (Q63380 1-617): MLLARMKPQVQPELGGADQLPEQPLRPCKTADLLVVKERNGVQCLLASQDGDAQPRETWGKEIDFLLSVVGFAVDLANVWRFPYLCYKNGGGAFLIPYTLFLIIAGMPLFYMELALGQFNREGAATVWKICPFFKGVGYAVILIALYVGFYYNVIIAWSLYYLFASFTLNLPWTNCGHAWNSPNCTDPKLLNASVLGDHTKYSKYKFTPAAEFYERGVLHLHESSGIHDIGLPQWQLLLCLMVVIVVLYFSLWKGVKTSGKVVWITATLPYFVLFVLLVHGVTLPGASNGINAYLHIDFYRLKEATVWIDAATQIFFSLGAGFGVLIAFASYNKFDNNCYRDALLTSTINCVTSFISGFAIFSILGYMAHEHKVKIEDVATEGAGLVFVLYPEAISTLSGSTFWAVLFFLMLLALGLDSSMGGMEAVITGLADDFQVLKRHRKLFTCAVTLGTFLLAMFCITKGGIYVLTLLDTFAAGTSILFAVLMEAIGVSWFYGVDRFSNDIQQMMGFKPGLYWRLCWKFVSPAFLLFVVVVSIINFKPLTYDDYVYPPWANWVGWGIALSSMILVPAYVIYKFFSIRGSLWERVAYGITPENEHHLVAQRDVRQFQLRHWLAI
T1 sequence (P31652 whole entry): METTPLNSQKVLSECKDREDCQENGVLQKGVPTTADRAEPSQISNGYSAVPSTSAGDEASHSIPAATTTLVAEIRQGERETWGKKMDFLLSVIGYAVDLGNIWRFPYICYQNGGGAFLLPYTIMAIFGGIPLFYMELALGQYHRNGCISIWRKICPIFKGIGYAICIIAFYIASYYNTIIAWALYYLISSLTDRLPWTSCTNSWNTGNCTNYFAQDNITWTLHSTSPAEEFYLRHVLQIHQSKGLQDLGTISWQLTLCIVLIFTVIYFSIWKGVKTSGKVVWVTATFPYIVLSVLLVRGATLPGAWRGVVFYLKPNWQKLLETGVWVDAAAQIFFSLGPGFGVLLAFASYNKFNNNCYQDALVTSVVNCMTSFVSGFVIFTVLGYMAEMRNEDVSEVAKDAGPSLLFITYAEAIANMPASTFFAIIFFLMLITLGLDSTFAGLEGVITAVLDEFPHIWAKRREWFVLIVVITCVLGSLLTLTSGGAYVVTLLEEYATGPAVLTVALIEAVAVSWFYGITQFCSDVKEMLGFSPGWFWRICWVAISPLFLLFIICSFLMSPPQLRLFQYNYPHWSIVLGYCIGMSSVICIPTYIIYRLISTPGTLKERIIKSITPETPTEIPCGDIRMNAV

One may read the inhibition as the relative decrease from the control value, in per cent. Take `Cc1ccc(CC2(N(C)C)CCC(NC(=O)CCC(=O)NCC3CCCO3)CC2)cc1` (centres unmarked) [Example 45, N-[4-dimethylamino-4-(4-methyl-benzyl)-cyclohexyl]-N′-(tetrahydro-furan-2-ylmethyl)-succinamide]: the results for the inhibition at 10 µM in assay [1] and in assay [2] were 92% and 77%, respectively.
For the compound `CCC(C)C(NC(=O)CCC(=O)NC1CCC(Cc2cccc(C)c2)(N(C)C)CC1)C(=O)OC(C)(C)C` (centres unmarked) [Example 102, 2-{3-[4-dimethylamino-4-(3-methyl-benzyl)-cyclohexylcarbamoyl]-propionylamino}-3-methyl-valeric acid tert-butyl ester], the inhibition at 10 µM came out at 94% in assay [1] and 105% in assay [2].
Taken in the same sequence, the figures for `CN(C)C1(Cc2ccc(Cl)cc2)CCC(NC(=O)CCC(=O)N2CCC3(CC2)OCCO3)CC1` (centres unmarked) [Example 65, N-[4-(4-chloro-benzyl)-4-dimethylamino-cyclohexyl]-4-(1,4-dioxa-8-aza-spiro[4.5]dec-8-yl)-4-oxo-butyramide] were 92% and 84%.
As for `CCOP(=O)(Cc1ccc(NC(=O)CCC(=O)NC2CCC(Cc3cccc(Cl)c3)(N(C)C)CC2)cc1)OCC` (centres unmarked) [Example 37, (4-{3-[4-(3-chloro-benzyl)-4-dimethylamino-cyclohexylcarbamoyl]-propionylamino}-benzyl)-phosphonic acid diethylester], the inhibition at 10 µM in assay [1] came to 95%; in assay [2], 100%.
For `Cc1ccc(CC2(N(C)C)CCC(NC(=O)CCC(=O)N3CCN(C(=O)c4cnc(C)cn4)CC3)CC2)cc1` (centres unmarked) [Example 10, N-[4-dimethylamino-4-(4-methyl-benzyl)-cyclohexyl]-4-[4-(5-methyl-pyrazin-2-carbonyl)-piperazin-1-yl]-4-oxo-butyramide], in that order: 92% and 78%.
For `CC1CN(C(=O)CCC(=O)NC2CCC(Cc3ccc(Cl)cc3)(N(C)C)CC2)CC(C)O1` (centres unmarked) [Example 86, N-[4-(4-chloro-benzyl)-4-dimethylamino-cyclohexyl]-4-(2,6-dimethyl-morpholin-4-yl)-4-oxo-butyramide], in that order: 92% and 76%.
For `Cc1cnc(C(=O)N2CCN(C(=O)CCC(=O)NC3CCC(Cc4cccc(Cl)c4)(N(C)C)CC3)CC2)cn1` (centres unmarked) [Example 33, N-[4-(3-chloro-benzyl)-4-dimethylamino-cyclohexyl]-4-[4-(5-methyl-pyrazin-2-carbonyl)-piperazin-1-yl]-4-oxo-butyramide], the figures for the inhibition at 10 µM in assay [1] and in assay [2] were 95% and 99%, respectively.
Regarding `CN(C)C1(Cc2ccc(Cl)cc2)CCC(NC(=O)CCC(=O)Nc2ccc3c(c2)CCC3)CC1` (centres unmarked) [Example 100, N-[4-(4-chloro-benzyl)-4-dimethylamino-cyclohexyl]-N′-indan-5-yl-succinamide], the inhibition at 10 µM is 92% in assay [1] and 77% in assay [2].
For `Cc1cccc(CC2(N(C)C)CCC(NC(=O)CCC(=O)N3CCc4[nH]c5ccc(F)cc5c4C3)CC2)c1` (centres unmarked) [Example 106, N-[4-dimethylamino-4-(3-methyl-benzyl)-cyclohexyl]-4-(8-fluoro-1,3,4,5-tetrahydro-pyrido[4,3-b]indol-2-yl)-4-oxo-butyramide], in that order: 93% and 98%.
For `CCC(C)c1ccc(NC(=O)CCC(=O)NC2CCC(Cc3ccc(Cl)cc3)(N(C)C)CC2)cc1` (centres unmarked) [Example 140, N-(4-sec-butyl-phenyl)-N′-[4-(4-chloro-benzyl)-4-dimethylamino-cyclohexyl]-succinamide], in that order: 93% and 77%.
Taken in the same sequence, the figures for `CC1CCN(C(=O)CCC(=O)NC2CCC(Cc3ccc(Cl)cc3)(N(C)C)CC2)CC1` (centres unmarked) [Example 60, N-[4-(4-chloro-benzyl)-4-dimethylamino-cyclohexyl]-4-(4-methyl-piperidin-1-yl)-4-oxobutyramide] were 93% and 71%.
On to `CN(CCc1c[nH]c2ccccc12)C(=O)CCC(=O)NC1CCC(Cc2cccc(Cl)c2)(N(C)C)CC1` (centres unmarked) [Example 53, N-[4-(3-chloro-benzyl)-4-dimethylamino-cyclohexyl]-N′-[2-(1H-indol-3-yl)-ethyl]-N′-methyl-succinamide], for which the results for the inhibition at 10 µM in assay [1] and in assay [2] were 93% and 94%, respectively.
As for `Cc1cccc(CC2(N(C)C)CCC(NC(=O)CCC(=O)N3CCN(c4ccc(Cl)cc4)CC3)CC2)c1` (centres unmarked) [Example 113, 4-[4-(4-chloro-phenyl)-piperazin-1-yl]-N-[4-dimethylamino-4-(3-methyl-benzyl)-cyclohexyl]-4-oxo-butyramide], the inhibition at 10 µM in assay [1] came out at 97%; in assay [2], 94%.
On to `Cc1cccc(CC2(N(C)C)CCC(NC(=O)CCC(=O)N3CCC(C(=O)c4ccccc4)CC3)CC2)c1` (centres unmarked) [Example 67, 4-(4-benzoyl-piperidin-1-yl)-N-[4-dimethylamino-4-(3-methyl-benzyl)-cyclohexyl]-4-oxo-butyramide], for which the inhibition at 10 µM in assay [1] worked out at 98%; in assay [2], 96%.
Taken in the same sequence, the figures for `COc1ccc(N2CCN(C(=O)CCC(=O)NC3CCC(Cc4ccc(C)cc4)(N(C)C)CC3)CC2)cc1` (centres unmarked) [Example 79, N-[4-dimethylamino-4-(4-methyl-benzyl)-cyclohexyl]-4-[4-(4-methoxy-phenyl)-piperazin-1-yl]-4-oxo-butyramide] were 96% and 95%.
With `CC1CCN(C(=O)CCC(=O)NC2CCC(Cc3cccc(Cl)c3)(N(C)C)CC2)CC1` (centres unmarked) [Example 92, N-[4-(3-chloro-benzyl)-4-dimethylamino-cyclohexyl]-4-(4-methyl-piperidin-1-yl)-4-oxo-butyramide], the inhibition at 10 µM in assay [1] came to 92%; in assay [2] it was 89%.
As to `CN(C)C1(Cc2cccc(Cl)c2)CCC(NC(=O)CCC(=O)NCCc2c[nH]c3ccccc23)CC1` (centres unmarked) [Example 99, N-[4-(3-chloro-benzyl)-4-dimethylamino-cyclohexyl]-N′-[2-(1H-indol-3-yl)-ethyl]-succinamicle], the “5HT-uptake [10 μM], % inhibition” value in assay [1] amounted to 94%. Moreover, in assay [2], the “NA-uptake [10 μM], % inhibition” value is listed as 99%.
Take `CN(C)C1(Cc2ccc(Cl)cc2)CCC(NC(=O)CCC(=O)NCc2cccc3ccccc23)CC1` (centres unmarked) [Example 34, N-[4-(4-chloro-benzyl)-4-dimethylamino-cyclohexyl]-N′-naphthalen-1-ylmethyl-succinamide]: the inhibition at 10 µM is 97% in assay [1] and 87% in assay [2].
For `Cc1ccccc1CNC(=O)CCC(=O)NC1CCC(Cc2ccc(Cl)cc2)(N(C)C)CC1` (centres unmarked) [Example 50, N-[4-(4-chloro-benzyl)-4-dimethylamino-cyclohexyl]-N′-(2-methyl-benzyl)-succinamide], in that order: 92% and 89%.
For the compound `Cc1cccc(CC2(N(C)C)CCC(NC(=O)CCC(=O)N3CCN(Cc4c(Cl)cccc4Cl)CC3)CC2)c1` (centres unmarked) [Example 23, 4-[4-(2,6-dichloro-benzyl)-piperazin-1-yl]-N-[4-dimethylamino-4-(3-methyl-benzyl)-cyclohexyl]-4-oxo-butyramide], the inhibition at 10 µM in assay [1] and in assay [2] was 92% in each case.
As for `COCC(Cc1ccccc1)NC(=O)CCC(=O)NC1CCC(Cc2cccc(Cl)c2)(N(C)C)CC1` (centres unmarked) [Example 123, N-[4-(3-chloro-benzyl)-4-dimethylamino-cyclohexyl]-N′-(1-methoxymethyl-2-phenyl-ethyl)-succinamide], the inhibition at 10 µM came out at 92% in assay [1] and 99% in assay [2].
For `COc1ccccc1N1CCN(C(=O)CCC(=O)NC2CCC(Cc3ccc(Cl)cc3)(N(C)C)CC2)CC1` (centres unmarked) [Example 47, N-[4-(4-chloro-benzyl)-4-dimethylamino-cyclohexyl]-4-[4-(2-methoxy-phenyl)-piperazin-1-yl]-4-oxo-butyramide], in that order: 93% and 73%.
Consider `Cc1cccc(CC2(N(C)C)CCC(NC(=O)CCC(=O)N(C)CC(=O)OCc3ccccc3)CC2)c1` (centres unmarked) [Example 22, ({3-[4-dimethylainino-4-(3-methyl-benzyl)-cyclohexylcarbamoyl]-propionyl}-methyl-amino)-acetic acid benzyl ester], for which the “5HT-uptake [10 μM], % inhibition” value in assay [1] was determined as 95%. In assay [2], the “NA-uptake [10 μM], % inhibition” value is given as 93%.
With `Cc1ccc(CC2(N(C)C)CCC(NC(=O)CCC(=O)N3CCN(c4cccc(C)c4)CC3)CC2)cc1` (centres unmarked) [Example 6, N-[4-dimethylamino-4-(4-methyl-benzyl)-cyclohexyl]-4-oxo-4-(4-m-tolyl-piperazin-1-yl)-butyramide], the inhibition at 10 µM is 96% in assay [1] and 91% in assay [2].
Turning to `CCOP(=O)(Cc1ccc(NC(=O)CCC(=O)NC2CCC(Cc3ccc(Cl)cc3)(N(C)C)CC2)cc1)OCC` (centres unmarked) [Example 93, (4-{3-[4-(4-chloro-benzyl)-4-dimethylamino-cyclohexylcarbamoyl]-propionylamino}-benzyl)-phosphonic acid diethylester], the inhibition at 10 µM in assay [1] is 92%; in assay [2], 75%.
As for `Cc1ccc(CC2(N(C)C)CCC(NC(=O)CCC(=O)N3CCN(c4ccccc4C)CC3)CC2)cc1` (centres unmarked) [Example 94, N-[4-dimethylamino-4-(4-methyl-benzyl)-cyclohexyl]-4-oxo-4-(4-o-tolyl-piperazin-1-yl)-butyramide], the inhibition at 10 µM in assay [1] is 92%; in assay [2] it was 86%.
For `Cc1cnc(C(=O)N2CCN(C(=O)CCCC(=O)NC3CCC(Cc4ccccc4)(N(C)C)CC3)CC2)cn1` (centres unmarked) [Example 41, 5-[4-(5-methyl-pyrazin-2-carbonyl)-piperazin-1-yl]-5-oxo-valeric acid (4-benzyl-4-dimethylamino-cyclohexyl)-amide], in that order: 92% and 90%.
Taken in the same sequence, the figures for `COc1ccc(NC(=O)CCC(=O)NC2CCC(Cc3ccc(Cl)cc3)(N(C)C)CC2)cc1` (centres unmarked) [Example 108, N-[4-(4-chloro-benzyl)-4-dimethylamino-cyclohexyl]-N′-(4-methoxy-phenyl)-succinamide] were 94% and 100%.
